According to BigSolDB 2.1:

CN1CCN(C2=Nc3cc(Cl)ccc3Nc3ccccc32)CC1
Details | solubility (mole fraction)
in 1,2-dichloroethane, 283.15 K | 0.0117
in 1,2-dichloroethane, 288.15 K | 0.0157
in 1,2-dichloroethane, 293.15 K | 0.0183
in 1,2-dichloroethane, 298.15 K | 0.0215
in 1,2-dichloroethane, 303.15 K | 0.0243
in 1,2-dichloroethane, 308.15 K | 0.0285
in 1,2-dichloroethane, 313.15 K | 0.0314
in 1,2-dichloroethane, 318.15 K | 0.0386
in 1,2-dichloroethane, 323.15 K | 0.0464
in 1,2-dichloroethane, 328.15 K | 0.0573
in 1,2-dichloroethane, 333.15 K | 0.0648
in DMF, 283.15 K | 0.0781
in DMF, 288.15 K | 0.0844
in DMF, 293.15 K | 0.0893
in DMF, 298.15 K | 0.0936
in DMF, 303.15 K | 0.101
in DMF, 308.15 K | 0.111
in DMF, 313.15 K | 0.122
in DMF, 318.15 K | 0.133
in DMF, 323.15 K | 0.145
in DMF, 328.15 K | 0.155
in DMF, 333.15 K | 0.17
in DMSO, 293.15 K | 0.0596
in DMSO, 298.15 K | 0.064
in DMSO, 303.15 K | 0.0709
in DMSO, 308.15 K | 0.0836
in DMSO, 313.15 K | 0.0949
in DMSO, 318.15 K | 0.109
in DMSO, 323.15 K | 0.119
in DMSO, 328.15 K | 0.139
in DMSO, 333.15 K | 0.159
in NMP, 283.15 K | 0.0305
in NMP, 288.15 K | 0.0406
in NMP, 293.15 K | 0.0474
in NMP, 298.15 K | 0.0525
in NMP, 303.15 K | 0.0606
in NMP, 308.15 K | 0.0687
in NMP, 313.15 K | 0.075
in NMP, 318.15 K | 0.0827
in NMP, 323.15 K | 0.0987
in NMP, 328.15 K | 0.113
in NMP, 333.15 K | 0.118
in acetone, 283.15 K | 0.00791
in acetone, 288.15 K | 0.00914
in acetone, 293.15 K | 0.0122
in acetone, 298.15 K | 0.0139
in acetone, 303.15 K | 0.0164
in acetone, 308.15 K | 0.018
in acetone, 313.15 K | 0.0201
in acetone, 318.15 K | 0.0236
in acetone, 323.15 K | 0.0278
in benzene, 283.15 K | 0.00583
in benzene, 288.15 K | 0.00619
in benzene, 293.15 K | 0.00676
in benzene, 298.15 K | 0.00771
in benzene, 303.15 K | 0.00967
in benzene, 308.15 K | 0.0119
in benzene, 313.15 K | 0.0152
in benzene, 318.15 K | 0.0181
in benzene, 323.15 K | 0.0208
in benzene, 328.15 K | 0.0259
in benzene, 333.15 K | 0.0303
in ethanol, 283.15 K | 0.0057
in ethanol, 288.15 K | 0.00581
in ethanol, 293.15 K | 0.00644
in ethanol, 298.15 K | 0.00702
in ethanol, 303.15 K | 0.00767
in ethanol, 308.15 K | 0.00837
in ethanol, 313.15 K | 0.0089
in ethanol, 318.15 K | 0.0103
in ethanol, 323.15 K | 0.0112
in ethanol, 328.15 K | 0.0128
in ethanol, 333.15 K | 0.0158
in isopropanol, 283.15 K | 0.00272
in isopropanol, 288.15 K | 0.00278
in isopropanol, 293.15 K | 0.00296
in isopropanol, 298.15 K | 0.00327
in isopropanol, 303.15 K | 0.00374
in isopropanol, 308.15 K | 0.0044
in isopropanol, 313.15 K | 0.00503
in isopropanol, 318.15 K | 0.00591
in isopropanol, 323.15 K | 0.00643
in isopropanol, 328.15 K | 0.00846
in isopropanol, 333.15 K | 0.0103
in methanol, 283.15 K | 0.00638
in methanol, 288.15 K | 0.00648
in methanol, 293.15 K | 0.00713
in methanol, 298.15 K | 0.00785
in methanol, 303.15 K | 0.0088
in methanol, 308.15 K | 0.00975
in methanol, 313.15 K | 0.0103
in methanol, 318.15 K | 0.0109
in methanol, 323.15 K | 0.0118
in methanol, 328.15 K | 0.0143
in n-propanol, 283.15 K | 0.00617
in n-propanol, 288.15 K | 0.00619
in n-propanol, 293.15 K | 0.00669
in n-propanol, 298.15 K | 0.00754
in n-propanol, 303.15 K | 0.00794
in n-propanol, 308.15 K | 0.00863
in n-propanol, 313.15 K | 0.0109
in n-propanol, 318.15 K | 0.0127
in n-propanol, 323.15 K | 0.0142
in n-propanol, 328.15 K | 0.0171
in n-propanol, 333.15 K | 0.0199
in toluene, 283.15 K | 0.00352
in toluene, 288.15 K | 0.00465
in toluene, 293.15 K | 0.00549
in toluene, 298.15 K | 0.00651
in toluene, 303.15 K | 0.0075
in toluene, 308.15 K | 0.00858
in toluene, 313.15 K | 0.0105
in toluene, 318.15 K | 0.0118
in toluene, 323.15 K | 0.014
in toluene, 328.15 K | 0.0164
in toluene, 333.15 K | 0.0202
